Entries after “also recorded” stand apart in the source; their conditions may differ.
How the values were obtained:
[1] = First observational study: infection questionnaire, antibiotic courses and hospital admission rates; assay type: in vivo, human
[2] = system: Vaccine specific-IgG (Haemophilus influenza B, Pneumococcus, Tetanus); conditions: human, in vivo
[3] = system: circulating total IgG, IgA and IgM; assay: Second observational study (interim analysis): circulating immunoglobulins and pneumococcal-specific IgG; assay type: in vivo, human
[4] = system: T follicular helper cells and T regulatory cells; assay: Mouse CIA model: T follicular helper and T regulatory cells in spleen and lymph node by flow cytometry; assay type: in vivo, DBA/1 mice
[5] = system: serum/plasma IgG, IgA, IgM; conditions: cited from earlier work
[6] = Michel. L. et al., 2015; cited from earlier work
[7] = in vivo; cited from earlier work
[8] = system: B cell subsets in bone marrow; assay: Wild type mouse study: bone marrow B cell immunophenotyping by flow cytometry
[9] = clozapine treatment for six weeks (Hinze-Selch et al., 1998)

In the case of `CN1CCN(C2=Nc3cc(Cl)ccc3Nc3ccccc32)CC1` [Clozapine, clozapine], the “Admitted to hospital with infection” value ([1]; clozapine group (vs 0.06 in controls)) is reported as 0.12 per patient year, the “Admission frequency in 12-month period, all cause: patients admitted” value ([1]; clozapine-treated patients) is reported as 14 patients and the “Admission frequency in 12-month period, infection-related: admissions” value ([1]; clozapine-treated patients) is reported as 15. For the same compound, the “Admission frequency in 12-month period, infection-related: patients admitted” value ([1]; clozapine-treated patients) was 10 patients, the “Antibiotic courses per year: 1-5 courses, percentage of patients” value ([1]; clozapine-treated patients) was 33.0% and the “Antibiotic courses per year: >5 courses, percentage of patients” value ([1]; clozapine-treated patients) was 5.3%. The “Antibiotic courses per year: nil courses, percentage of patients” value ([1]; clozapine-treated patients) was 61.7%, the “Antibiotic courses per year: >5 courses, percentage of patients” value ([1]; clozapine-treated patients, listed as clozapine) was 5.3% and the “Failed to develop an IgG response above >=50 mg/L following Pneumovax II” value [2] was 73%. The “Failing to exceed the >=0.1 IU/mL post-vaccination Tetanus-IgG level” value [2] was 1/12, the “Failing to mount a Haemophilus-IgG response >=1 mcg/ml post-Menitorix (HiB/MenC) vaccination” value [2] was 42% and the “IgG to Haemophilus influenza B (HiB) <1 mcg/ml at initial assessment, patients” value [2] was 75%. For the same compound, the “Pneumococcus-IgG <50 mg/L at initial assessment, patients” value [2] was 94%, the “Response to haemophilus and/or pneumococcal vaccination, individual referred patient” value [2] was “Failure to responds to; also recorded: Durable pneumococcal; also recorded: Non-durable” and the “Responses to vaccination impaired, patients / patients assessed” value [2] was 10/11. For the same compound, the “Tetanus-IgG <0.1 IU/mL at initial assessment, patients” value [2] was 38%, the “Levels of circulating total IgG, IgA and IgM vs clozapine naive” value ([3]; FIG. 6A-C) was “Significantly reduced” and the “IgG antibodies against pneumococcus vs clozapine naive” value ([3]; FIG. 7) was “trend to lower”. The “Proportions of CD4+PD1+CXCR5+ T follicular helper cells in lymph node or spleen” value ([4]; 5 or 10 mg/kg from day 1 or day 15) was “did not significantly affect”, the “Expression of PD-1 (MFI) in lymph node T follicular helper cells” value ([4]; all doses and time points) was “Reduced expression” and the “Expression of CD25 on Tregs” value ([4]; dosed from day 1) was “significantly upregulate”. For the same compound, the “Foxp3 expression on Tregs” value ([4]; dosed from day 1) was “not alter”, the “CXCR5 expression (MFI) on T follicular helper cells” value ([4]; dosed from day 1, lymph node and spleen) was “significant reductions” and the “Proportion of CD4+CD25+Foxp3+ T regulatory cells (Tregs)” value ([4]; higher dose tested, from day 1, lymph node and spleen) was “increase the proportion”. The “Expression of CCR7 on T follicular helper cells” value ([4]; lymph node and spleen) was “reduced expression”, the “IgA, IgG, absolute neutrophil count and white blood cell count vs control group” value ([5]; Lozano et al., 2016) was “no differences” and the “IgA or IgM concentrations or pattern of autoantibodies” value [5, 9] was “no significant effect”. For the same compound, the “Serum concentrations of IgG” value [5, 9] was “significant increases”, the “Mean plasma levels of IgM vs control group” value ([5]; outpatients on clozapine for at least five years (Lozano et al., 2016)) was “overall decrease” and the CNS penetration [6] was “high levels of CNS penetration”. The LD50 [7] was 200 mg/kg, the “Pro-B cell fraction in bone marrow” value ([8]; 10 mg/kg IP, 21 days) was “without any change” and the “Proportion of pre-pro B cells in bone marrow” value ([8]; 10 mg/kg IP, 21 days) was “significant increase”. For the same compound, the “Reduction in the percentage of long-lived plasma cells in the bone marrow compared to control” value ([8]; 5 and 10 mg/kg IP, 21 days, significant) was about 30%, the “B cells in the bone marrow (BM), overall” value ([8]; any dose of clozapine (2.5, 5, 10 mg/kg IP, 21 days)) was “No overall reduction” and the “Percentage of immature B cells in bone marrow” value ([8]; clozapine IP, 21 days) was “reduction”. For the same compound, the “Pre-B cells in bone marrow” value ([8]; dose-dependent, significant vs control even at 2.5 mg/kg) was “reduction” and the “Percentage of pre-B cells that were proliferating” value ([8]; reaching significance for the 5 mg/kg dose) was “diminished”.

Source: US20210236512A1 (ZARODEX THERAPEUTICS LIMITED, priority 2018, published 2021)
